Experimental data taken from US20150125915A1, “Method for Producing Lactic Acid” (Kao Corporation, priority 2012, published 2015).

Legend:
[1] = Evaluation of foaming property by the inversion stirring method; assay type: physicochemical
Experimental: Each surfactant used in Test Example 2 was evaluated for its foaming properties by the inversion stirring method. 100 mL of a PDB medium non-supplemented or supplemented with 0.5% (w/v) (final concentration) of a surfactant was added to a graduated cylindrical container of 50 mm in diameter and then inversion-stirred for 300 seconds using a flat propeller while the propeller was inverted every 6 seconds at 1000 rpm. 30 seconds after the completion of stirring, the volume of foam in the medium was measured.

[2] = test system: Rhizopus oryzae NBRC 5384 (=JCM14625); assay: Evaluation of ability to produce lactic acid-2, strain NBRC 5384; assay type: cell-based; conditions: 0.5% (w/v) at spore germination, control of the strain without surfactant = 100
Experimental: (1) Spore suspensions were prepared in the same way as in Production Example 1 using Rhizopus oryzae NBRC 4707, NBRC 4785, NBRC 5384 (=JCM14625), and NBRC 5418 strains obtained from a culture collection NBRC.
(2) Mycelia were prepared from the spores of each strain under the same conditions as in Production Example 2 involving stirring at 100 rpm using 60 mL of a PDB medium non-supplemented or supplemented with 0.5% (w/v) (final concentration) of the surfactant sorbitan monolaurate (Rheodol(R) SP-L10, manufactured by Kao Corp.).
(3) The total amount of the fungus bodies obtained in (2) was inoculated to 100 mL of an inorganic culture medium under the same conditions as in Production Example 3 to grow the mycelia. […]
30 g of the prepared wet fungus bodies of each strain of the genus Rhizopus was inoculated to 100 mL of an inorganic culture medium for lactic acid production evaluation (composition: 12.5% glucose, 0.1% ammonium sulfate, 0.06% potassium dihydrogen phosphate, 0.025% magnesium sulfate heptahydrate, 0.009% zinc sulfate heptahydrate, and 6.25% calcium carbonate; all the concentrations mean % (w/v)) applied to a 500-mL Erlenmeyer flask, and then cultured at 33.5° C. with stirring at 170 rpm. The production rate of lactic acid was determined by the same procedures as in Test Example 2. […]

[3] = test system: fungus of the genus Rhizopus; assay: Evaluation of ability to produce lactic acid by repetitive use of fungus body; assay type: cell-based; conditions: 0.5% (w/v) at germination, relative to control without surfactant in the first repetition
Experimental: Mycelia of a fungus of the genus Rhizopus were prepared in a medium non-supplemented with or containing 0.5% (w/v) (final concentration) of the surfactant sorbitan monolaurate (Rheodol(R) SP-L10) by the same procedures as in Test Example 4(2) and then cultured by the same procedures as in Test Example 4(3). The obtained fungus bodies were recovered by the same procedures as in Test Example 5(4). Subsequently, 25 g of the wet fungus bodies was cultured for 4 hours in an inorganic culture medium for lactic acid production evaluation by the same procedures as in Test Example 5. The production rate of lactic acid was determined. The same procedures of fungus body recovery and culture were repeated, and the production rate of lactic acid was determined at each run (the number of repetitions: 3). The production rate of lactic acid at each run was calculated as a relative value to the production rate of lactic acid under the control conditions (in the absence of the surfactant) in the first repetition. The concentration of lactic acid (unit: g of lactic acid/L of medium) in the supernatant sample of each culture medium was measured according to Reference Example 1 and divided by a time (unit: hr) required for change in lactic acid concentration to calculate the production rate of lactic acid per unit time (unit: g of lactic acid/L/hr). In addition, a relative value to the production rate of lactic acid under control conditions in each Production Example was determined.

Sorbitan monolaurate
Volume of foam relative to the volume of foam in the absence of the surfactant (in words) ([1]; 0.5% (w/v) in PDB medium): twice or less | Volume of foam (relative value) ([1]; 0.5% (w/v) surfactant in PDB medium, 30 seconds after stirring, foam in the absence of the surfactant = 100): 150 relative value | Production rate of lactic acid (relative value) [2]: 130 relative value | Production rate of lactic acid (relative value) ([3]; repetition 1): 173 relative value | Production rate of lactic acid (relative value) ([3]; repetition 2): 170 relative value | Production rate of lactic acid (relative value) ([3]; repetition 3): 167 relative value
